Literature values as cited in US8685448B2, “Pharmaceutical solid dosage form” (Laboratorios Del Dr. Esteve, S.A., priority 2009, dated 2014).
Where a name gives a salt, the structure may show the parent alone.

Conditions: background statement

solubility in water: extremely soluble in water
SMILES: COc1ccc2nc([S@@+]([O-])Cc3ncc(C)c(OC)c3C)[nH]c2c1 [esomeprazol sodium salt, sodium salt of (−)-(S)-5-methoxy-2-[(4-methoxy-3,5-dimethylpyridin-2-yl)methylsulflnyl]-3H-benzoimidazole]
